Measured values taken from patent US8563742B2, “Substituted aminothiazole derivatives, pharmaceutical compositions, and methods of use” (High Point Pharmaceuticals, LLC, priority 2008, dated 2013).
Like-named read-outs stand apart in the source and are kept apart here.

Columns and labels:
[1] = target: T1, human MC-4R (Homo sapiens, UniProt P32245); assay: Biological Assay: inhibition of AgRP functional interaction with MC-4R in presence of αMSH (cAMP production); type: cell-based; settings: HEK293 cells expressing human MC-4R, AgRP83-132 and αMSH present
T1 construct: expressed in transfected cells
T1 sequence (P32245 whole entry): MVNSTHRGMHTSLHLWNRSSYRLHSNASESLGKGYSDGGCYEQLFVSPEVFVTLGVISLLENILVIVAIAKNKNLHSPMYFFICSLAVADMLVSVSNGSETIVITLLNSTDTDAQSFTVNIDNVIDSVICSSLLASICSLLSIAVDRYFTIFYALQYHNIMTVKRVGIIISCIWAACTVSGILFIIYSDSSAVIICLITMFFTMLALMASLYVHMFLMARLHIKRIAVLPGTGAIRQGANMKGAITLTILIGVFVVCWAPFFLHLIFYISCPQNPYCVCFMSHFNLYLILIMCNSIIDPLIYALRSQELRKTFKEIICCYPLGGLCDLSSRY
Procedure: The following method is illustrative of techniques that may be employed to measure the ability of the compounds of Formula (I) to functionally modulate the binding of AgRP to melanocortin receptors. In particular, the assay below measures the ability of compounds of Formula (I) or pharmaceutically acceptable salts thereof to functionally modulate the binding of AgRP to MC-4R in the presence of a MC-4R agonist, such as alpha-MSH.
HEK293 cells stably expressing human MC-4R receptors were grown in high glucose Dulbecco's Modified Eagle Medium (DMEM) with 4500 mg glucose/L, L-glutamine, NaHCO3, pyrdoxin HCl, 10 mM HEPES (pH 7.4), 0.1 mM NEAA (non-essential amino acid medium) (GIBCO Cat#11140-050), 10% fetal bovine serum and 700 μg/mL G418. Cells were grown in T-225 flasks at 37° C. with CO2 and humidity control.
On the day of assay, cells were washed twice with phosphate buffered saline without calcium and magnesium (PBS) and incubated with 10 mL PBS until the cells were detached from the flask. The detached cells were centrifuged at 240 g for 5 min. The cell pellet was re-suspended in assay buffer (Earle's balanced salt solution (Sigma E3024) supplemented with 10 mM HEPES, pH 7.4, 0.5 mM IBMX and protease inhibitor cocktail (Roche, 1 complete tablet/75 mL buffer)).
The inhibitory or enhancement effect of compounds on AgRP activity was measured in a multi-component assay containing testing compounds, AgRP83-132 (human, Phoenix Pharma, cat no. 003-53), cells expressing MC-4R, and αMSH (Bachem, cat no. H-1075). Test compounds, AgRP and αMSH were diluted with assay buffer. Test compounds and AgRP were mixed to 4 times of the final concentration and incubated at room temperature for 30 min. Five μL of testing compound/AgRP solution followed with 10 μL of cells (20,000 cells/well) were added to each well of a 384-well reaction plate before 5 μL of αMSH was added. Cells were stimulated with αMSH for an additional 30 min at 37° C.
Stimulation of cells was stopped by adding a lysis buffer and cells were lysed. The intracellular concentration of cAMP may be measured by various techniques known to one of skill in the art including, but not limited to, fluorescence polarization (FP) and time-resolved fluorescence (TRF).
The inhibition was shown by an increase in MC-4R mediated cAMP production.

[2] = Stability in Liver Microsomes (human); type: in vitro ADME; settings: 1 μM, 0.5 mg protein/mL, NADPH, 60 minutes, 37° C., pH 7.4
Procedure: (§1) Various compounds were tested for their stability in human, monkey, dog, rat, and mouse liver microsomes. At a final concentration of 1 μM, compounds were incubated with either human, monkey, dog, rat, or mouse liver microsomes (0.5 mg protein/mL) in the presence of an NADPH-solution for 60 minutes at 37° C., pH 7.4 in phosphate buffer. Incubations were performed in duplicate. Reactions were terminated by the addition of methanol. The incubation solution was vortexed and transferred into a 96-well plate. The plate was sealed and centrifuged at approximately 3500 rpm for approximately 10 minutes. After centrifugation, the plate was loaded into 96-well plate autosampler and analyzed by LC/MS. Values are reported as percent of compound remaining after 1 hour.

[3] = Stability in Liver Microsomes (monkey); type: in vitro ADME; settings: 1 μM, 0.5 mg protein/mL, NADPH, 60 minutes, 37° C., pH 7.4
Procedure: as §1

[4] = Stability in Liver Microsomes (dog); type: in vitro ADME; settings: 1 μM, 0.5 mg protein/mL, NADPH, 60 minutes, 37° C., pH 7.4
Procedure: as §1

[5] = Stability in Liver Microsomes (rat); type: in vitro ADME; settings: 1 μM, 0.5 mg protein/mL, NADPH, 60 minutes, 37° C., pH 7.4
Procedure: as §1

[6] = Stability in Liver Microsomes (mouse); type: in vitro ADME; settings: 1 μM, 0.5 mg protein/mL, NADPH, 60 minutes, 37° C., pH 7.4
Procedure: as §1

[7] = Pharmacokinetic screening in rats (plasma and brain); settings: rat, 5 mg/kg PO; for concentration at 2 h: male, Sprague Dawley, po, 5 mg/kg, 2 hour time point; for Brain - 24 hours AUC (h * ng/g): 24 hour study
Procedure: Pharmacokinetic screening in rats was performed on various compounds to measure brain to plasma ratio at 2 hour time point. […] The parameters for the pharmacokinetic protocol were as follows.
Amount of compound: 5 mg/kg
Species: Rat; Strain: Sprague Dawley; Sex: Male
Diet Status: Overnight fasting
Number of Animals (n) for each time point: 2
Formulation: 0.1% CMC, 0.25% Tween 80 in distilled water
Each formulation was administered once by oral gavage using a gavage needle (18G-3, BrainTree Scientific, INC, USA) attached to a syringe. The dose volume was 5 mL/kg for all animals. The actual volume administered to each animal was calculated and adjusted based on the most recent body weight.
Blood samples (approximately 300 μL whole blood) was collected from each animal via tail vein except for terminal blood samples. Terminal blood samples were collected via cardiac puncture. All samples were collected into tubes containing lithium heparin (Multivette 600 LH-Gel, Sarstedt, Newton, N.C., USA). Following collection, the tubes were placed in refrigerator (maximum 30 minutes) or until centrifugation under refrigeration (at 2 to 8° C.) at 5000 g for 7 minutes. Each harvested plasma sample was then transferred into 1.2 mL polypropylene tubes, on the 96-Well Plate according to the 96-Well Plate plasma sample map and kept in freezer. Plasma samples were then analyzed for test substances.
Brain samples were collected immediately after the rats were euthanised at designated time points. Brain samples were rinsed with saline, blotted dry, and weighed. Brain samples were placed into individual containers and kept in freezer (−20° C.). Brain samples were then analyzed for test articles.
After analysis, all the plasma results were reported as ng/mL and brain sample results are reported as ng/g.

[8] = read-out: Average EC50 (nM) in Biological Assay
[9] = plasma, Plasma - 2 hours (ng/mL)

Row | SMILES | EC50 [1, 8] | Stability in Liver Microsomes (% remaining after 1 hour incubation) Human [2] | Stability in Liver Microsomes (% remaining after 1 hour incubation) Monkey [3] | Stability in Liver Microsomes (% remaining after 1 hour incubation) Dog [4] | Stability in Liver Microsomes (% remaining after 1 hour incubation) Rat [5] | Stability in Liver Microsomes (% remaining after 1 hour incubation) Mouse [6] | EC50 ([1]; Average EC50 (nM) in Biological Assay) | concentration at 2 h ([7]; brain, Brain - 2 hours (ng/g)) | concentration at 2 h [7, 9] | Brain - 24 hours AUC (h * ng/g) [7]
1 | Cc1ccc(CN(CCC(=O)[O-])c2nc(C3CCC(c4ccc(F)cc4)CC3)cs2)s1.[Na+] (centres unmarked) [Example 61, Sodium; 3-[{4-[4-(4-fluoro-phenyl)-cyclohexyl]-thiazol-2-yl}-(5-methyl-thiophen-2-ylmethyl)-amino]-propionate] | 246 nM | 68% | 13% | 84% | 40% | 74% |  |  |  | 
2 | CCC1CCC(c2csc(N(CCC(=O)O)Cc3ccc(C)s3)n2)CC1 (centres unmarked) [Example 19, 3-[[4-(4-Ethyl-cyclohexyl)-thiazol-2-yl]-(5-methyl-thiophen-2-ylmethyl)-amino]-propionic acid] |  | 43% | 60% | 87% | 52% | 73% | 386 nM |  |  | 
3 | O=C([O-])CCN(Cc1cccs1)c1nc(C2CCC(c3ccccc3)CC2)cs1.[Na+] (stereo not drawn) [Reference Compound E, Sodium 3-[[4-(trans-4-phenyl-cyclohexyl)-thiazol-2-yl]-(5-thiophen-2-ylmethyl)-amino]-propionate, reference compound] |  | 60% | 38% | 50% | 52% | 51% |  |  |  | 
4 | COC1CCC(c2csc(N(CCC(=O)O)Cc3ccc(C)s3)n2)CC1 (centres unmarked) [Example 31, 3-[[4-(4-Methoxy-cyclohexyl)-thiazol-2-yl]-(5-methyl-thiophen-2-ylmethyl)-amino]-propionic acid] | 1570 nM | 83% | 88% | 94% | 83% | 91% |  |  |  | 
5 | Cc1ccc(CN(CCC(=O)O)c2nc(C3CCC(C)(C)CC3)cs2)s1 [Example 55, 3-[[4-(4,4-Dimethyl-cyclohexyl)-thiazol-2-yl]-(5-methyl-thiophen-2-ylmethyl)-amino]-propionic acid] | 70 nM | 49% | 78% | 80% | 64% | 68% |  |  |  | 
6 | CCCC1CCC(c2csc(N(CCC(=O)O)Cc3ccc(C)s3)n2)CC1 (centres unmarked) [Example 21, 3-{(5-Methyl-thiophen-2-ylmethyl)-[4-(4-propyl-cyclohexyl)-thiazol-2-yl]-amino}-propionic acid] | 372 nM | 84% | 47% | 78% | 66% | 86% |  |  |  | 
7 | CCc1ccc(CN(CCC(=O)O)c2nc(CC3CCCCC3)cs2)s1 [Example 3, 3-[(4-Cyclohexylmethyl-thiazol-2-yl)-(5-ethyl-thiophen-2-ylmethyl)-amino]-propionic acid] | 246 nM |  |  |  |  |  |  | 691 ng/g | 2.65 µg/mL | 
8 | CCc1ccc(CN(CCC(=O)[O-])c2nc(-c3ccc(N4CCCC4)cc3)cs2)s1.[Na+] [Reference Compound F, reference compound] |  | 40% | 5% | 45% | 27% | 30% |  |  |  | 
9 | CCc1ccc(CN(CCC(=O)O)c2nc(C3CCC(C)(C)CC3)cs2)s1 [Example 54, 3-[[4-(4,4-Dimethyl-cyclohexyl)-thiazol-2-yl]-(5-ethyl-thiophen-2-ylmethyl)-amino]-propionic acid] | 36 nM |  |  |  |  |  |  | 2980 ng/g | 7.71 µg/mL | ++++ (values above 20,000 h*ng/g)
10 | Cc1ccc(CN(CCC(=O)O)c2nc(C3(CC(C)C)CCCC3)cs2)s1 [Example 42, 3-[[4-(1-Isobutyl-cyclopentyl)-thiazol-2-yl]-(5-methyl-thiophen-2-ylmethyl)-amino]-propionic acid] | 116 nM |  |  |  |  |  |  | 42 ng/g | 0.05 µg/mL | 
11 | Cc1ccc(CN(CCC(=O)[O-])c2nc(C3(c4ccccc4)CCCCC3)cs2)s1.[Na+] [Example 6, Sodium; 3-{(5-methyl-thiophen-2-ylmethyl)-[4-(1-phenyl-cyclohexyl)-thiazol-2-yl]-amino}-propionate] | 250 nM |  |  |  |  |  |  | 248 ng/g | 0.445 µg/mL | + (values less than 5,000 h*ng/g)
12 | Cc1ccc(CN(CCC(=O)O)c2nc(C3(C)CCC(C(C)C)CC3)cs2)s1 (centres unmarked) [Example 48, Sodium; 3-[[4-(4-isopropyl-1-methyl-cyclohexyl)-thiazol-2-yl]-(5-methyl-thiophen-2-ylmethyl)-amino]-propionate] | 73 nM |  |  |  |  |  |  | 251 ng/g | 0.486 µg/mL | 
13 | CCc1ccc(CN(CCC(=O)O)c2nc(C3CC4CCCCC4C3)cs2)s1 (centres unmarked) [Example 58, 3-{(5-Ethyl-thiophen-2-ylmethyl)-[4-(octahydro-inden-2-yl)-thiazol-2-yl]-amino}-propionic acid] | 94 nM |  |  |  |  |  |  | 720 ng/g | 1.33 µg/mL | 
14 | CC(C)(C)[C@H]1CC[C@H](c2csc(N(CCC(=O)O)Cc3cccs3)n2)CC1 [Reference Compound D, Sodium 3-[[4-(trans-4-tert-butyl-cyclohexyl)-thiazol-2-yl]-(thiophen-2-ylmethyl)-amino]-propionate, reference compound] |  | 51% | 76% | 47% | 26% | 79% |  |  |  | 
